The text below walks through data of patent publication US12091425B2 (AMGEN INC., priority 2016, dated 2024).

Structures are written as SMILES.

The test system of assay [1] is OPM-2 human multiple myeloma cell line. Description: Cell Viability Assay (OPM-2 10 FBS). Type of assay: cell-based. The note with it: OPM-2 cells, CellTiter-Glo. In a few lines: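 IC50 from 4-parameter logistic fit of CellTiter-Glo luminescence. 3000 cells/well, 10% FBS medium, serial compound dilutions, 16 h, 37 °C/5% CO2; read 25 min post-reagent.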
Assay [2] has as its target T1, Mcl-1/Bim interaction, recombinant human Mcl-1 (171-327) (Homo sapiens, UniProt Q07820).
T1 construct: made in house
Description: Cell free Mcl-1: Bim Affinity Assay (Mcl-1 HTRF). Format: binding. In a few lines:
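Biotin-Bim(51-76) peptide, TR-FRET readout, overnight incubation; IC50 from duplicate competition curves, 4-parameter fit.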
Background: Time-resolved FRET reads energy transfer from a long-lived donor to a nearby acceptor.

[3] abbreviates: cell free Mcl-1:Bim TR-FRET, recombinant human Mcl-1 (171-327).
The mark [4] stands for this setting: Homo sapiens, OPM-2, 16 h, 16 h.
The mark [5] stands for this setting: TR-FRET, 0.1 nM Mcl-1 (171-327), 0.05 nM biotin-Bim (51-76).
[6] abbreviates: Homo sapiens, OPM-2, 16 h, 16 h incubation.

T1 sequence (Q07820 171-327): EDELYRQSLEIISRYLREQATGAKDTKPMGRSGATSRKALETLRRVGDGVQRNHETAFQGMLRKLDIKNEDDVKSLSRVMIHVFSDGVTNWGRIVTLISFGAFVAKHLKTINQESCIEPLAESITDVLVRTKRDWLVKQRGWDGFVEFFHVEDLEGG

For `CO[C@H]1/C=C/C[C@H]2C[C@@H]2S(=O)(=O)NC(=O)c2ccc3c(c2)N(C[C@@H]2CC[C@H]21)C[C@@]1(CCCc2cc(Cl)ccc21)CO3` (single isomer, unassigned) [Example 804], the IC50 (usually the concentration that gives 50% inhibition) in assay [1] (16 h) worked out at 0.377 µM; in assay [2] (setting [3]) it was 0.000658 µM.
Take `COCCO[C@H]1/C=C/C[C@H]2C[C@@H]2S(=O)(=O)NC(=O)c2ccc3c(c2)N(C[C@@H]2CC[C@H]21)C[C@@]1(CCCc2cc(Cl)ccc21)CO3` (single isomer, unassigned) [Example 805]: the values for the concentration for half-maximal inhibition (IC50) in assay [1] (16 h) and in assay [2] (setting [3]) were 0.719 µM and 0.00106 µM, respectively.
On to `O=C1NS(=O)(=O)CC/C=C/C[C@H](O)[C@@H]2CC[C@H]2CN2C[C@@]3(CCCc4cc(Cl)ccc43)COc3ccc1cc32` (single isomer, unassigned) [Example 846], for which the values for the half-maximal inhibitory concentration (IC50) in assay [1] (setting [4]) and in assay [2] (setting [3]) were 2.76 µM and 0.00218 µM, respectively.
The corresponding values for `O=C1NS(=O)(=O)C/C=C/C2(O)CCOC(C2)C2CCC2CN2CC3(CCCc4cc(Cl)ccc43)COc3ccc1cc32` (single isomer, unassigned) [Example 851] are 19.7 µM and 0.001 µM.
Consider `O=C1NS(=O)(=O)CCOC2CCOC(C2)C2CCC2CN2CC3(CCCc4cc(Cl)ccc43)COc3ccc1cc32` (single isomer, unassigned) [Example 878], for which the half-inhibitory concentration (IC50) was determined as 7 µM in assay [1] (setting [4]) and 0.00945 µM in assay [2] (setting [3]).
Consider `CC[C@@H]1CC/C=C\C(=O)[C@@H]2CC[C@H]2CN2C[C@@]3(CCCc4cc(Cl)ccc43)COc3ccc(cc32)C(=O)NS1(=O)=O` (single isomer, unassigned) [Example 885], for which the IC50 in assay [1] (setting [4]) came to 0.616 µM; in assay [2] (setting [3]), 0.0183 µM.
`O=C1NS(=O)(=O)CCC[C@]2(O)CCO[C@H](C2)[C@@H]2CC[C@H]2CN2C[C@@]3(CCCc4cc(Cl)ccc43)COc3ccc1cc32` (single isomer, unassigned) [Example 901]: the half-inhibitory concentration (IC50) in assay [1] (16 h) stood at 5.5 µM; in assay [2] (setting [3]), 0.000568 µM.
In the case of `O=C1NS(=O)(=O)C/C=C/[C@]2(O)CCO[C@@H](C2)[C@@H]2CC[C@H]2CN2C[C@@]3(CCCc4cc(Cl)ccc43)COc3ccc1cc32` (single isomer, unassigned) [Example 918], the 50% inhibitory concentration (IC50) in assay [1] (16 h) was 15.1 µM; in assay [2] (setting [3]), 0.00275 µM.
For `C[C@@H]1CS(=O)(=O)NC(=O)c2ccc3c(c2)N(C[C@@H]2CC[C@H]2[C@@H]2C[C@H](CCO2)O1)C[C@@]1(CCCc2cc(Cl)ccc21)CO3` (single isomer, unassigned) [Example 921] the same measures were 9.16 µM and 0.00209 µM.
For `C[C@@H]1CS(=O)(=O)NC(=O)c2ccc3c(c2)N(C[C@@H]2CC[C@H]2[C@@H]2C[C@H](CCO2)O1)C[C@@]1(CCCc2cc(Cl)ccc21)CO3` (single isomer, unassigned) [Example 922] the same measures were 2.4 µM and 0.000975 µM.
As for `C[C@H]1/C=C/[C@H](O)[C@@H]2CC[C@H]2CN2C[C@@]3(CCCc4cc(Cl)ccc43)COc3ccc(cc32)C(=O)NS(=O)(=O)[C@@H](C)C1` (single isomer, unassigned) [Example 1021], the figures for the IC50 in assay [1] (16 h incubation) and in assay [2] (setting [5]) were 27 µM and 0.00909 µM, respectively.
For `C[C@@H]1/C=C/[C@H](O)[C@@H]2CC[C@H]2CN2C[C@@]3(CCCc4cc(Cl)ccc43)COc3ccc(cc32)C(=O)NS(=O)(=O)[C@@H](C)C1` (single isomer, unassigned) [Example 1022] the same measures were 22.7 µM and 0.0235 µM.
For `CC[C@@H]1C[C@@H](C)/C=C/[C@H](O)[C@@H]2CC[C@H]2CN2C[C@@]3(CCCc4cc(Cl)ccc43)COc3ccc(cc32)C(=O)NS1(=O)=O` (single isomer, unassigned) [Example 1023] the same measures were 0.501 µM and 0.000307 µM.
The corresponding values for `CC[C@@H]1C[C@H](C)/C=C/[C@H](O)[C@@H]2CC[C@H]2CN2C[C@@]3(CCCc4cc(Cl)ccc43)COc3ccc(cc32)C(=O)NS1(=O)=O` (single isomer, unassigned) [Example 1024] are 0.414 µM and 0.000296 µM.
`CC[C@@H]1C[C@@H](C)/C=C/[C@H](OCCOC)[C@@H]2CC[C@H]2CN2C[C@@]3(CCCc4cc(Cl)ccc43)COc3ccc(cc32)C(=O)NS1(=O)=O` (single isomer, unassigned) [Example 1025]: the concentration for half-maximal inhibition (IC50) in assay [1] (16 h incubation) stood at 0.141 µM; in assay [2] (setting [5]) it was 0.000411 µM.
The corresponding values for `CC[C@@H]1C[C@H](C)/C=C/[C@H](OCCN2CCOCC2)[C@@H]2CC[C@H]2CN2C[C@@]3(CCCc4cc(Cl)ccc43)COc3ccc(cc32)C(=O)NS1(=O)=O` (single isomer, unassigned) [Example 1027] are 0.218 µM and 0.000945 µM.
For `O=C1NS(=O)(=O)[C@@H]2COC[C@H]2C/C=C/[C@H](O)[C@@H]2CC[C@H]2CN2C[C@@]3(CCCc4cc(Cl)ccc43)COc3ccc1cc32` (single isomer, unassigned) [Example 1030] the same measures were 0.271 µM and 0.000195 µM.
The corresponding values for `CO[C@H]1/C=C/C[C@@H]2COC[C@H]2S(=O)(=O)NC(=O)c2ccc3c(c2)N(C[C@@H]2CC[C@H]21)C[C@@]1(CCCc2cc(Cl)ccc21)CO3` (single isomer, unassigned) [Example 1032] are 0.575 µM and 0.000422 µM.
Consider `COCCO[C@H]1/C=C/C[C@@H]2COC[C@H]2S(=O)(=O)NC(=O)c2ccc3c(c2)N(C[C@@H]2CC[C@H]21)C[C@@]1(CCCc2cc(Cl)ccc21)CO3` (single isomer, unassigned) [Example 1033], for which the IC50 was 0.205 µM in assay [1] (16 h incubation) and 0.000367 µM in assay [2] (setting [5]).
For `COCCO[C@H]1/C=C/C[C@H]2COC[C@@H]2S(=O)(=O)NC(=O)c2ccc3c(c2)N(C[C@@H]2CC[C@H]21)C[C@@]1(CCCc2cc(Cl)ccc21)CO3` (single isomer, unassigned) [Example 1034] the same measures were 8.05 µM and 0.00404 µM.
`O=C1NS(=O)(=O)C2COCC2CC=CC(O)C2CCC2CN2CC3(CCCc4cc(Cl)ccc43)COc3ccc1cc32` (single isomer, unassigned) [Example 1036]: the half-inhibitory concentration (IC50) in assay [1] (setting [6]) worked out at 11.3 µM; in assay [2] (setting [5]), 0.00136 µM.
Take `COC[C@@H]1C[C@@H](C)CC[C@H](O)[C@@H]2CC[C@H]2CN2C[C@@]3(CCCc4cc(Cl)ccc43)COc3ccc(cc32)C(=O)NS1(=O)=O` (single isomer, unassigned) [Example 1037]: the IC50 in assay [1] (16 h incubation) was determined as 0.744 µM; in assay [2] (setting [5]), 0.000831 µM.
`COCCO[C@H]1/C=C/C(C)C[C@@H](COC)S(=O)(=O)NC(=O)c2ccc3c(c2)N(C[C@@H]2CC[C@H]21)C[C@@]1(CCCc2cc(Cl)ccc21)CO3` (single isomer, unassigned) [Example 1039]: the IC50 in assay [1] (16 h incubation) stood at 0.198 µM; in assay [2] (setting [5]), 0.000389 µM.
The corresponding values for `COCCO[C@H]1CC[C@@H](C)C[C@@H](COC)S(=O)(=O)NC(=O)c2ccc3c(c2)N(C[C@@H]2CC[C@H]21)C[C@@]1(CCCc2cc(Cl)ccc21)CO3` (single isomer, unassigned) [Example 1040] are 2.19 µM and 0.00104 µM.
With `C[C@@H]1[C@@H](C)S(=O)(=O)NC(=O)c2ccc3c(c2)N(C[C@@H]2CC[C@H]2[C@@H](O)/C=C/[C@@H]1C)C[C@@]1(CCCc2cc(Cl)ccc21)CO3` (single isomer, unassigned) [Example 1041], the figures for the IC50 in assay [1] (setting [6]) and in assay [2] (setting [5]) were 0.0772 µM and 0.000183 µM, respectively.
For `C[C@H]1[C@H](C)/C=C/[C@H](O)[C@@H]2CC[C@H]2CN2C[C@@]3(CCCc4cc(Cl)ccc43)COc3ccc(cc32)C(=O)NS(=O)(=O)[C@@H]1C` (single isomer, unassigned) [Example 1042], the values for the half-inhibitory concentration (IC50) in assay [1] (setting [6]) and in assay [2] (setting [5]) were 0.393 µM and 0.00078 µM, respectively.
For `C[C@@H]1[C@@H](C)/C=C/[C@H](O)[C@@H]2CC[C@H]2CN2C[C@@]3(CCCc4cc(Cl)ccc43)COc3ccc(cc32)C(=O)NS(=O)(=O)[C@H]1C` (single isomer, unassigned) [Example 1043] the same measures were 6.74 µM and 0.00609 µM.
Consider `CCC1C(C)C(C)C=CC(O)C2CCC2CN2CC3(CCCc4cc(Cl)ccc43)COc3ccc(cc32)C(=O)NS1(=O)=O` (single isomer, unassigned) [Example 1054], for which the IC50 in assay [1] (16 h incubation) was found to be 0.101 µM; in assay [2] (setting [5]) it was 0.000211 µM.
`CCC1C(C)C(C)C=CC(O)C2CCC2CN2CC3(CCCc4cc(Cl)ccc43)COc3ccc(cc32)C(=O)NS1(=O)=O` (single isomer, unassigned) [Example 1055]: the IC50 in assay [1] (16 h incubation) is 0.257 µM; in assay [2] (setting [5]), 0.000394 µM.
For `C[C@H]1/C=C/[C@H](O)[C@@H]2CC[C@H]2CN2C[C@@]3(CCCc4cc(Cl)ccc43)COc3ccc(cc32)C(=O)NS(=O)(=O)[C@@H]2COC[C@H]21` (single isomer, unassigned) [Example 1058] the same measures were 0.456 µM and 0.000249 µM.
With `C[C@@H]1CS(=O)(=O)NC(=O)c2ccc3c(c2)N(C[C@@H]2CC[C@H]2C(=O)/C=C/[C@@H]1C)C[C@@]1(CCCc2cc(Cl)ccc21)CO3` (single isomer, unassigned) [Example 1059], the IC50 is 4.91 µM in assay [1] (setting [6]) and 0.0097 µM in assay [2] (setting [5]).
The corresponding values for `CC1C=CC(O)C2CCC2CN2CC3(CCCc4cc(Cl)ccc43)COc3ccc(cc32)C(=O)NS(=O)(=O)CC1C` (single isomer, unassigned) [Example 1061] are 1.11 µM and 0.000711 µM.
For `C[C@@H]1/C=C/[C@@H](O)[C@@H]2CC[C@H]2CN2C[C@@]3(CCCc4cc(Cl)ccc43)COc3ccc(cc32)C(=O)NS(=O)(=O)C[C@@H]1C` (single isomer, unassigned) [Example 1062], the 50% inhibitory concentration (IC50) in assay [1] (16 h incubation) worked out at 12.6 µM; in assay [2] (setting [5]), 0.00788 µM.
